Reference: publication PMC11672400, “Synthesis, Spectroscopic Characterization, Structural Analysis, and Evaluation of Anti-Tumor, Antimicrobial, and Antibiofilm Activities of Halogenoaminopyrazoles Derivatives” (Antibiotics, 2024)
In brackets after ≈: the same amount, converted by molar mass. Where two headings read alike, the source gives them in different places.

What was measured:
[1] = tested on: Pseudomonas aeruginosa ATCC27853; assay: Antibiofilm assay (crystal violet), MBIC; type: cell-based; details: 37 °C; for Minimum biofilm inhibition concentration (MBIC), Pseudomonas aeruginosa ATCC27853: 24 h; for minimal effective concentration: Pseudomonas aeruginosa, ATCC27853, 24 h, read-out: Minimum biofilm inhibition concentration (MBIC), Pseudomonas aeruginosa ATCC27853
Protocol: (§1) Microorganisms were grown in 96-well plates filled with nutrient broth along with test substances, followed by incubation at 37 °C for 24 h. Plates were cleaned and rinsed thrice using SPW solution (sterile physiological water). After that, the attached cells were treated with 110 μL of methanol for 5 min, and then the methanol was removed by turning it upside down. […] Once stained, the solution was removed, and the plates were washed with running tap water. […] The antimicrobial/antibiofilm activity of the compounds was evaluated against two antibiotics, commercial formulations of metronidazole and nitrofurantoin.

[2] = tested on: Enterococcus faecalis ATCC29212; assay: Antibiofilm assay (crystal violet), MBIC; type: cell-based; details: 37 °C; for minimal effective concentration: Enterococcus faecalis, ATCC29212, 24 h, read-out: Minimum biofilm inhibition concentration (MBIC), Enterococcus faecalis ATCC29212
Protocol: as §1

[3] = tested on: Staphylococcus aureus ATCC25923; assay: Antibiofilm assay (crystal violet), MBIC; type: cell-based; details: Staphylococcus aureus, ATCC25923; 24 h, 37 °C; read-out: Minimum biofilm inhibition concentration (MBIC), Staphylococcus aureus ATCC25923
Protocol: as §1

[4] = tested on: Escherichia coli ATCC25922; assay: Antibiofilm assay (crystal violet), MBIC; type: cell-based; details: 37 °C; for minimal effective concentration: Escherichia coli, ATCC25922, 24 h, read-out: Minimum biofilm inhibition concentration (MBIC), Escherichia coli ATCC25922
Protocol: as §1

[5] = tested on: Pseudomonas aeruginosa ATCC27853; assay: Qualitative evaluation of antimicrobial activity (inhibition zone, spot on agar); type: cell-based; parameters: key: (+) inhibited bacterial growth; (-) did not inhibit bacterial growth; details: 0.06 g/2 mL DMSO, 5 µL spot
Protocol: (§2) For testing the antimicrobial/antibiofilm activity, the concentration of the studied compounds was identical to 0.06 g/2 mL DMSO. 0.5 Standard McFarland suspension was used, which was inoculated onto Mueller Hinton agar plates, (Remel, Lenexa, KS, USA), 5 µL of each compound was spotted and incubated overnight at 37 °C. Antimicrobial activity was observed as zones of inhibition formed around the spot.

[6] = tested on: Enterococcus faecalis ATCC29212; assay: as above; type: cell-based; parameters: key: (+) inhibited bacterial growth; (-) did not inhibit bacterial growth; details: 0.06 g/2 mL DMSO, 5 µL spot
Protocol: as §2

[7] = tested on: Staphylococcus aureus ATCC25923; assay: as above; type: cell-based; parameters: key: (+) inhibited bacterial growth; (-) did not inhibit bacterial growth; details: 0.06 g/2 mL DMSO, 5 µL spot
Protocol: as §2

[8] = tested on: Escherichia coli ATCC25922; assay: as above; type: cell-based; parameters: key: (+) inhibited bacterial growth; (-) did not inhibit bacterial growth; details: 0.06 g/2 mL DMSO, 5 µL spot
Protocol: as §2

[9] = tested on: HEp-2 epithelial tumor cells; assay: MTT cell viability / anti-tumor activity; details: Homo sapiens, read-out: Cell viability on Hep2 cells (%)
[10] = MTT cell viability / cytotoxicity on normal fibroblasts; type: cell-based, mouse; details: mouse
Description: Merck chemicals were utilized.
Untreated cells were used as control, considered 100% viable cells.

[11] = tested on: Pseudomonas aeruginosa ATCC27853; assay: MIC by serial microdilution in liquid medium; type: cell-based; details: 24 h, 37 °C; for MIC: Pseudomonas aeruginosa, ATCC27853, read-out: Minimum inhibitory concentration, Pseudomonas aeruginosa ATCC27853
Protocol: (§3) The minimum inhibitory concentrations (MIC) were determined by the serial microdilution method in a liquid medium (Tryptone Soy Broth), on 96-well plates. Serial binary dilutions of the compound stock solution (10 mg/mL in DMSO) were carried out in 90 µL of culture medium and 10 µL of 10^6 CFU/mL (Colony Forming Units) microbial suspension. Each test included a positive control (wells with culture medium and microbial suspension) and a negative control for medium sterility. After incubation at 37 °C for 24 h the plates were visually examined, and optical density was measured at 620 nm. […] The MIC value (µg/mL) for the chemical compound was determined by the concentration in the final well without bacterial growth. All experiments were performed in triplicate.

[12] = tested on: Enterococcus faecalis ATCC29212; assay: MIC by serial microdilution in liquid medium; type: cell-based; details: 24 h, 37 °C; for MIC: Enterococcus faecalis, ATCC29212, read-out: Minimum inhibitory concentration, Enterococcus faecalis ATCC29212
Protocol: as §3

[13] = tested on: Staphylococcus aureus ATCC25923; assay: MIC by serial microdilution in liquid medium; type: cell-based; details: 24 h, 37 °C; for MIC: Staphylococcus aureus, ATCC25923, read-out: Minimum inhibitory concentration, Staphylococcus aureus ATCC25923
Protocol: as §3

[14] = tested on: Escherichia coli ATCC25922; assay: MIC by serial microdilution in liquid medium; type: cell-based; details: 24 h, 37 °C; for MIC: Escherichia coli, ATCC25922, read-out: Minimum inhibitory concentration, Escherichia coli ATCC25922
Protocol: as §3

[15] = NCTC clone 929 (L929) mouse fibroblast cells
[16] = read-out: Cell viability on NCTC cells (%)

| Structure (SMILES) | Minimum biofilm inhibition concentration (MBIC), Pseudomonas aeruginosa ATCC27853 [1] [µg/mL] | minimal effective concentration [1] [µg/mL] | minimal effective concentration [2] [µg/mL] | minimal effective concentration [3] [µg/mL] | minimal effective concentration [4] [µg/mL] | Qualitative antimicrobial activity, Pseudomonas aeruginosa ATCC27853 [5] | Qualitative antimicrobial activity, Enterococcus faecalis ATCC29212 [6] | Qualitative antimicrobial activity, Staphylococcus aureus ATCC25923 [7] | Qualitative antimicrobial activity, Escherichia coli ATCC25922 [8] | viability at 3.1 µg/mL ([9]; HEp-2, 24 h) [%] | viability at 6.25 µg/mL ([9]; HEp-2, 24 h) [%] | viability at 12.5 µg/mL ([9]; HEp-2, 24 h) [%] | viability at 25 µg/mL ([9]; HEp-2, 24 h) [%] | viability at 50 µg/mL ([9]; HEp-2, 24 h) [%] | viability at 3.1 µg/mL ([9]; HEp-2, 48 h) [%] | viability at 6.25 µg/mL ([9]; HEp-2, 48 h) [%] | viability at 12.5 µg/mL ([9]; HEp-2, 48 h) [%] | viability at 25 µg/mL ([9]; HEp-2, 48 h) [%] | viability at 50 µg/mL ([9]; HEp-2, 48 h) [%] | melting point [°C] | other results |
| --- | --- | --- | --- | --- | --- | --- | --- | --- | --- | --- | --- | --- | --- | --- | --- | --- | --- | --- | --- | --- | --- |
| Cc1nn(CNc2ccc(I)cc2)c(C)c1[N+](=O)[O-] [4d, N-[(3,5-dimetyl-4-nitro-1H-pyrazol-1-yl)-methyl]-4-iodoaniline] | 460 ± 0.05 | 460 | 930 ± 0.53 | 930 ± 0.03 | 930 ± 0.18 | - | - | - | - | 105 ± 1.93 | 110 ± 2.64 | 113 ± 3.48 | 109 ± 2.75 | 106 ± 1.63 | 101 ± 3.72 | 110 ± 3.49 | 111 ± 2.8 | 101.6 ± 0.56 | 69 ± 0.81 | 91 to 92 | viability at 24 h, 3.1 µg/mL [10, 15]: 99.9 ± 2.31%; viability at 48 h, 3.1 µg/mL [10, 15]: 95.69 ± 0.8%; viability at 24 h, 6.25 µg/mL [10, 15]: 101 ± 2.24%; viability at 48 h, 6.25 µg/mL [10, 15]: 96.26 ± 0.78%; viability at 24 h, 12.5 µg/mL [10, 15]: 103 ± 3.44%; viability at 48 h, 12.5 µg/mL [10, 15]: 92.6 ± 1.4%; viability at 24 h, 25 µg/mL [10, 15]: 102 ± 1.07%; viability at 48 h, 25 µg/mL [10, 15]: 91.5 ± 1.41%; viability at 24 h, 50 µg/mL [10, 15]: 101 ± 2.55%; viability at 48 h, 50 µg/mL [10, 15]: 88.2 ± 2.1%; MIC [11]: 930 ± 0.02 µg/mL (≈ 2.5 mM); MIC [12]: 930 ± 0.53 µg/mL (≈ 2.5 mM); MIC [13]: 930 ± 0.55 µg/mL (≈ 2.5 mM); MIC [14]: 930 ± 0.1 µg/mL (≈ 2.5 mM) |
| Cc1nn(CN(Cn2nc(C)c([N+](=O)[O-])c2C)c2ccc(Br)cc2)c(C)c1[N+](=O)[O-] [5c, N,N-bis-[(3,5-dimetyl-4-nitro-1H-pyrazol-1-yl)-methyl]-4-bromoaniline] | 1870 ± 0.53 | 1870 | 1870 | 1870 ± 0.15 | 3750 | - | - | - | - | 112 ± 2.32 | 114 ± 2.18 | 117 ± 2.83 | 113 ± 1.52 | 102 ± 2.71 | 96.9 ± 1.38 | 96.5 ± 1.58 | 89.2 ± 2.02 | 65.3 ± 2.09 | 50.2 ± 2.02 | 133 to 135 | Minimum biofilm inhibition concentration (MBIC), Enterococcus faecalis ATCC29212 ([2]; 24 h): 1870 ± 0.06 µg/mL; Minimum biofilm inhibition concentration (MBIC), Escherichia coli ATCC25922 ([4]; 24 h): 3750 ± 0.48 µg/mL; viability at 24 h, 3.1 µg/mL [10, 16]: 105 ± 1.96%; viability at 48 h, 3.1 µg/mL [10, 16]: 96.7 ± 2.96%; viability at 24 h, 6.25 µg/mL [10, 16]: 106 ± 2.3%; viability at 48 h, 6.25 µg/mL [10, 16]: 101 ± 3.63%; viability at 24 h, 12.5 µg/mL [10, 16]: 106 ± 3.74%; viability at 48 h, 12.5 µg/mL [10, 16]: 97.4 ± 1.99%; viability at 24 h, 25 µg/mL [10, 16]: 105 ± 1.88%; viability at 48 h, 25 µg/mL [10, 16]: 96.6 ± 2.02%; viability at 24 h, 50 µg/mL [10, 16]: 84 ± 2.12%; viability at 48 h, 50 µg/mL [10, 16]: 68 ± 1.61%; Minimum inhibitory concentration, Pseudomonas aeruginosa ATCC27853 [11]: 3750 ± 0.51 µg/mL (≈ 7.84 mM); MIC [11]: 3750 µg/mL (≈ 7.84 mM); Minimum inhibitory concentration, Enterococcus faecalis ATCC29212 [12]: 3750 ± 0.08 µg/mL (≈ 7.84 mM); MIC [12]: 3750 µg/mL (≈ 7.84 mM); Minimum inhibitory concentration, Staphylococcus aureus ATCC25923 [13]: 3750 ± 0.04 µg/mL (≈ 7.84 mM); MIC [13]: 3750 µg/mL (≈ 7.84 mM); Minimum inhibitory concentration, Escherichia coli ATCC25922 [14]: 3750 ± 0.54 µg/mL (≈ 7.84 mM); MIC [14]: 3750 µg/mL (≈ 7.84 mM) |
